Marks after values point to notes of the source that are not given here.
Tests used:
Format in all cases: in vivo
[1] = tested on: cigarette smoke induced emphysema in mice (C57BI/6J); experiment: Chronic model of cigarette smoke exposure in mice: morphometric assessment of emphysema (Lm, ISA); details: for Lm (mean linear intercept) / ISA (internal surface area of the lung): 7 months, mean ± SEM; for ISA (internal surface area of the lung): ISA=4VL/Lm; for Inhibition of emphysema formation (Lm and ISA), in words: smoke-exposed
Method: (§1) Effects of ROFLUMILAST in an Chronic Model of Cigarette Smoke Exposure in Mice
(§2) Eighty 6 week old male mice of the strain C57BI/6J (supplied Harlan-Italy, Udine, Italy) were used in this study. The mice were housed in groups of 7 to 10 in macrolon cages. Room temperature was kept at 22° to 24° C.; and relative humidity at 40 to 50%; food and water were supplied ad libitum. All animal experimentation was approved by the Local Ethical Committee of the University of Siena.
(§3) ROFLUMILAST was given p.o. by gavage in a volume of 10 μl suspension/g body weight 60 min prior to either air or smoke exposure.
(§4) The methodology for chronic smoke exposure has been previously described in detail (Cavarra et al; Am J Respir Crit Care Med 2001; Vol 164, pp 886-890). Briefly, mice were exposed to either the smoke of 3 cigarettes/day (commercial Virginia filter cigarettes: 12 mg of tar and 0.9 mg of nicotine), 5 days/week or to room air (controls) for 7 months, in especially designed macrolon cages (Tecniplast, Buguggiate, Italy). These cages (42.5×26.6×19 cm) are equipped with a disposable filter cover which enables the air to flow out of the cages and thus to be continuously renewed. The smoke was produced by the burning of a cigarette and was introduced into the chamber with the airflow generated by a mechanical ventilator (7025 Rodent Ventilator, Ugo Basile, Biological Research Instruments, Comerio, Italy), at a rate of 33 ml /min. A second mechanical ventilator was used to provide room air for dilution (1:8) of the smoke-stream. With this methodology the mice were exposed to the smoke originated by three cigarettes once a day for the duration of 90 min. In a pilot study, the efficiency of the smoke delivery system was tested in 12 mice by measuring blood HbCO by co-oxymetry.
Seven months after chronic exposure to room air or cigarette smoke (24 h after last exposure), 5 to 12 animals of each group, were anesthetized with ether and then exsanguinated by severing the abdominal aorta. The lungs were excised and fixed intratracheally with buffered formalin (5%) at a constant pressure of 20 cm H2O for at least 24 hours. Post-fixation lung volume (VL) was measured by water displacement. All lungs were then dehydrated, cleared in toluene and embedded under vacuum in paraffin. Two 7-μm transversal sections were made and stained with hematoxylin-eosin and/or periodic acid-Schiff (PAS). Two pathologists blinded to the exposure protocol carried out the morphological and morphometrical evaluation.
Morphometric assessment of emphysema included determination of the average inter-alveolar distance (mean linear intercept: Lm) and internal surface area estimated by the Lm method at postfixation lung volume. For the determination of the Lm for each pair of lungs, 40 histological fields were evaluated both vertically and horizontally. Examination of these numbers of fields meant that practically the entire lung area was evaluated. Internal surface area of the lung (ISA) was calculated by according to the formula: ISA=4VL/Lm.
(§5) All data were analyzed using GraphPad Prism software (GraphPad Software, San Diego, Calif., USA). For each parameter the values of the individual animals were averaged and the SEM was calculated. The significance of the differences was calculated using parametric one-way analysis of variance (ANOVA) with subsequent Bonferroni's multiple comparison post-test for selected pairs. A p value of <0.05 was considered significant.

[2] = tested on: cigarette smoke induced emphysema in mice (C57BI/6J); experiment: Chronic model of cigarette smoke exposure in mice: lung desmosine content by HPLC; details: for Desmosine (lung content): 7 months, mean ± SEM
Method: as §1, §2, §3, §4
Lung desmosine concentration was determined by High Pressure Liquid Chromatography (HPLC) essentially according to Cumiskey et al. (J Chromatogr B 1995, Vol 668, pp 199-207). Briefly, lung samples were homogenized in 5% TCA (1:9, w:v) and centrifuged for 10 min. at 4000 g at 4° C. The pellet was then washed twice with distilled water and hydrolyzed for 16 h at 130° C. in 6 N HCl.
After hydrolysis, the samples were centrifuged for 10 min at 2000 g and filtered through a FP 030/3 0.2 μm filter (Schleicher & Schuell). Aliquots (0.5 ml) of samples were desiccated under liquid nitrogen and then suspended in 0.6 ml 0.1 M sodium phosphate, pH 3.73.
The HPLC apparatus consisted of a single pump (Pro-Star 210, Varian) delivering isocratic mobile phase, of which 80% was 0.1 M dibasic sodium phosphate adjusted to pH 3.75 with phosphoric acid; the remaining 20% was acetonitrile. Sodium dodecyl sulphate (SDS) was added to a final concentration of 10 mM. The pH was re-adjusted after the addition of acetonitrile and SDS. The flow rate was 0.8 ml/min through a C18 (reverse phase MSORV 100A, Varian). Injection volumes of 100 μl of test samples diluted in 0.1 M sodium phosphate buffer, pH 3.75 was used to detect desmosine concentration. Detection of desmosine was by absorbance at 275 nm. Peak purity was checked with a Pro-Star 330 photodiode array detector (Varian) scanning from 200 to 400 nm. Isodesmosine eluted at approx. 9 min, and desmosine approx. at 12 min. Peak height, appopriate external calibration curves and internal standards were used to quantitate desmosine in unknown samples. Desmosine standards were from Elastin Co. (USA).
as §5

C57BI/6J mice = experiment: Chronic model of cigarette smoke exposure in mice: mortality; details: all groups, ROFLUMILAST 1 or 5 mg/kg p.o., 7 months
Method: as §2, §3
as §4, with “A second mechanical ventilator was used to provide room air for dilution (1:8) of the smoke-stream. With this methodology the mice were exposed to the smoke originated by three cigarettes once a day for the duration of 90 min. In a pilot study, the efficiency of the smoke delivery system was tested in 12 mice by measuring blood HbCO by co-oxymetry.” left out

[3] = air exposure, ROFLUMILAST 5 mg/kg p.o.
[4] = chronic model of cigarette smoke induced emphysema in mice, dose not given
[5] = cigarette smoke exposure, ROFLUMILAST 1 mg/kg p.o.
[6] = cigarette smoke exposure, ROFLUMILAST 5 mg/kg p.o.

O=C(Nc1c(Cl)cncc1Cl)c1ccc(OC(F)F)c(OCC2CC2)c1 [ROFLUMILAST, 3-cyclopropylmethoxy-4-difluoro-methoxy-N-(3,5-dichloropyrid-4-yl)benzamide]
Lm (mean linear intercept) [1, 3]: 33.48 ± 0.36 μm | ISA (internal surface area of the lung) [1, 3]: 1342.70 ± 23.39## cm^2 | Effect on increase of Lm, in words [1, 4]: can prevent the increase of Lm | Lm (mean linear intercept) [1, 5]: 40.79 ± 0.87 μm | ISA (internal surface area of the lung) [1, 5]: 1079.78 ± 35.61** cm^2 | Lm (mean linear intercept) [1, 6]: 34.28 ± 0.31 μm | ISA (internal surface area of the lung) [1, 6]: 1292.21 ± 29.63# cm^2 | Inhibition of emphysema formation (Lm and ISA), in words ([1]; ROFLUMILAST 1 mg/kg): unable to inhibit emphysema formation | Inhibition of emphysema formation (Lm and ISA), in words ([1]; ROFLUMILAST 5 mg/kg): gross inhibition of emphysema formation | Desmosine (lung content) [2, 3]: 2.91 ± 0.08 μg/lung | Effect on drop of the desmosine content in the lung, in words [2, 4]: can prevent the drop of the desmosine content in the lung | Desmosine (lung content) [2, 5]: 2.45 ± 0.11 μg/lung | Desmosine (lung content) [2, 6]: 2.98 ± 0.10 μg/lung | Lung desmosine content compared to air-exposed, in words ([2]; smoke-exposed, ROFLUMILAST 1 mg/kg): significantly lower lung desmosine content | Lung desmosine content compared to air-exposure, in words ([2]; smoke-exposed, ROFLUMILAST 5 mg/kg): Unchanged lung desmosine content | Mortality (C57BI/6J mice): No animal died

— US20070254928A1, “Use of Roflumilast for the Prophylaxis or Treatment of Emphysema” (Altana Pharma AG, priority 2004, published 2007)
